The supplement of paper PMC10307832

Legend:
Assay in all cases: relative viability (nuclei count vs DMSO), 5 days (fraction); higher = more cells survive
201T = test system: 201T
Method in brief: (§1)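 Relative viability divides the nuclei count in treated wells by that in vehicle wells. Lung cancer cell lines were seeded in 1536-well plates, dosed by pin tool the next day, and fixed and stained after 5 days in one step with final 0.05% Triton X-100, 1% formaldehyde and 1 ug/ml Hoechst. Dosing was a single drug or a fixed anchor-drug dose plus five library-drug doses (not always all listed) in √10 steps, and values are medians of duplicate plates imaged at 4×.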

ABC-1 = test system: ABC-1
Method in brief: as §1

CAL-12T = test system: CAL-12T
Method in brief: as §1

COR-L23 = test system: COR-L23
Method in brief: as §1

HCC-44 = test system: HCC-44
Method in brief: as §1

HOP-62 = test system: HOP-62
Method in brief: as §1

LC-2-ad = test system: LC-2-ad
Method in brief: as §1

LCLC-103H = test system: LCLC-103H
Method in brief: as §1

NCI-H1355 = test system: NCI-H1355
Method in brief: as §1

NCI-H1651 = test system: NCI-H1651
Method in brief: as §1

NCI-H1666 = test system: NCI-H1666
Method in brief: as §1

NCI-H1993 = test system: NCI-H1993
Method in brief: as §1

NCI-H2085 = test system: NCI-H2085
Method in brief: as §1

NCI-H2228 = test system: NCI-H2228
Method in brief: as §1

NCI-H2347 = test system: NCI-H2347
Method in brief: as §1

NCI-H23 = test system: NCI-H23
Method in brief: as §1

NCI-H322M = test system: NCI-H322M
Method in brief: as §1

NCI-H520 = test system: NCI-H520
Method in brief: as §1

NCI-H647 = test system: NCI-H647
Method in brief: as §1

NCI-H661 = test system: NCI-H661
Method in brief: as §1

NCI-H838 = test system: NCI-H838
Method in brief: as §1

SMILES: O=c1[nH]c2ccccc2n1C1CCN(CCCC(c2ccc(F)cc2)c2ccc(F)cc2)CC1 [Pimozide] + CC(C)C[C@H](NC(=O)[C@H](Cc1ccccc1)NC(=O)c1cnccn1)B(O)O [Bortezomib] (partner 0.002 µM)
- relative viability (201T; first compound 0.08 µM): 1.07
- relative viability (201T; first compound 0.253 µM): 1.05
- relative viability (201T; first compound 0.8 µM): 1.02
- relative viability (201T; first compound 2.53 µM): 1.08
- relative viability (201T; first compound 8 µM): 1.01
- relative viability (ABC-1; first compound 0.08 µM): 0.289
- relative viability (ABC-1; first compound 0.253 µM): 0.284
- relative viability (ABC-1; first compound 0.8 µM): 0.34
- relative viability (ABC-1; first compound 2.53 µM): 0.227
- relative viability (ABC-1; first compound 8 µM): 0.26
- relative viability (CAL-12T; first compound 0.08 µM): 0.875
- relative viability (CAL-12T; first compound 0.253 µM): 0.979
- relative viability (CAL-12T; first compound 0.8 µM): 0.821
- relative viability (CAL-12T; first compound 2.53 µM): 0.87
- relative viability (CAL-12T; first compound 8 µM): 0.828
- relative viability (COR-L23; first compound 0.08 µM): 0.965
- relative viability (COR-L23; first compound 0.253 µM): 0.945
- relative viability (COR-L23; first compound 0.8 µM): 0.956
- relative viability (COR-L23; first compound 2.53 µM): 0.967
- relative viability (COR-L23; first compound 8 µM): 0.964
- relative viability (HCC-44; first compound 0.08 µM): 0.874
- relative viability (HCC-44; first compound 0.253 µM): 0.788
- relative viability (HCC-44; first compound 0.8 µM): 0.856
- relative viability (HCC-44; first compound 2.53 µM): 0.975
- relative viability (HCC-44; first compound 8 µM): 0.877
- relative viability (HOP-62; first compound 0.08 µM): 0.935
- relative viability (HOP-62; first compound 0.253 µM): 0.889
- relative viability (HOP-62; first compound 2.53 µM): 0.749
- relative viability (HOP-62; first compound 8 µM): 1.02
- relative viability (LC-2-ad; first compound 0.08 µM): 1.09
- relative viability (LC-2-ad; first compound 0.253 µM): 0.927
- relative viability (LC-2-ad; first compound 0.8 µM): 0.935
- relative viability (LC-2-ad; first compound 2.53 µM): 1.03
- relative viability (LC-2-ad; first compound 8 µM): 0.996
- relative viability (LCLC-103H; first compound 0.08 µM): 1
- relative viability (LCLC-103H; first compound 0.253 µM): 1.07
- relative viability (LCLC-103H; first compound 0.8 µM): 0.877
- relative viability (LCLC-103H; first compound 2.53 µM): 1.08
- relative viability (LCLC-103H; first compound 8 µM): 1.12
- relative viability (NCI-H1355; first compound 0.08 µM): 1.18
- relative viability (NCI-H1355; first compound 0.253 µM): 1.2
- relative viability (NCI-H1355; first compound 0.8 µM): 1.05
- relative viability (NCI-H1355; first compound 2.53 µM): 1.19
- relative viability (NCI-H1355; first compound 8 µM): 1.19
- relative viability (NCI-H1651; first compound 0.08 µM): 0.903
- relative viability (NCI-H1651; first compound 0.8 µM): 0.993
- relative viability (NCI-H1651; first compound 2.53 µM): 0.897
- relative viability (NCI-H1651; first compound 8 µM): 0.972
- relative viability (NCI-H1666; first compound 0.08 µM): 0.823
- relative viability (NCI-H1666; first compound 0.253 µM): 0.744
- relative viability (NCI-H1666; first compound 0.8 µM): 0.761
- relative viability (NCI-H1666; first compound 2.53 µM): 0.7
- relative viability (NCI-H1666; first compound 8 µM): 0.626
- relative viability (NCI-H1993; first compound 0.08 µM): 0.89
- relative viability (NCI-H1993; first compound 0.253 µM): 1.03
- relative viability (NCI-H1993; first compound 0.8 µM): 0.986
- relative viability (NCI-H1993; first compound 2.53 µM): 1.07
- relative viability (NCI-H1993; first compound 8 µM): 1.01
- relative viability (NCI-H2085; first compound 0.08 µM): 0.972
- relative viability (NCI-H2085; first compound 0.253 µM): 1.01
- relative viability (NCI-H2085; first compound 0.8 µM): 1.04
- relative viability (NCI-H2085; first compound 2.53 µM): 1.13
- relative viability (NCI-H2085; first compound 8 µM): 0.741
- relative viability (NCI-H2228; first compound 0.08 µM): 1.11
- relative viability (NCI-H2228; first compound 0.253 µM): 0.858
- relative viability (NCI-H2228; first compound 0.8 µM): 0.904
- relative viability (NCI-H2228; first compound 2.53 µM): 0.728
- relative viability (NCI-H2228; first compound 8 µM): 0.559
- relative viability (NCI-H2347; first compound 0.08 µM): 1
- relative viability (NCI-H2347; first compound 0.253 µM): 0.858
- relative viability (NCI-H2347; first compound 0.8 µM): 0.748
- relative viability (NCI-H2347; first compound 2.53 µM): 0.955
- relative viability (NCI-H2347; first compound 8 µM): 0.883
- relative viability (NCI-H23; first compound 0.08 µM): 0.883
- relative viability (NCI-H23; first compound 0.253 µM): 1.04
- relative viability (NCI-H23; first compound 0.8 µM): 1.02
- relative viability (NCI-H23; first compound 2.53 µM): 0.757
- relative viability (NCI-H23; first compound 8 µM): 0.908
- relative viability (NCI-H322M; first compound 0.253 µM): 1.26
- relative viability (NCI-H322M; first compound 0.8 µM): 1.18
- relative viability (NCI-H322M; first compound 2.53 µM): 1.16
- relative viability (NCI-H322M; first compound 8 µM): 1.09
- relative viability (NCI-H520; first compound 0.08 µM): 0.386
- relative viability (NCI-H520; first compound 0.253 µM): 0.538
- relative viability (NCI-H520; first compound 0.8 µM): 0.556
- relative viability (NCI-H520; first compound 2.53 µM): 0.437
- relative viability (NCI-H520; first compound 8 µM): 0.649
- relative viability (NCI-H647; first compound 0.08 µM): 1.08
- relative viability (NCI-H647; first compound 0.253 µM): 0.855
- relative viability (NCI-H647; first compound 0.8 µM): 0.851
- relative viability (NCI-H647; first compound 2.53 µM): 0.944
- relative viability (NCI-H647; first compound 8 µM): 0.529
- relative viability (NCI-H661; first compound 0.08 µM): 0.672
- relative viability (NCI-H661; first compound 0.253 µM): 0.699
- relative viability (NCI-H661; first compound 0.8 µM): 0.719
- relative viability (NCI-H661; first compound 2.53 µM): 0.725
- relative viability (NCI-H661; first compound 8 µM): 0.852
- relative viability (NCI-H838; first compound 0.08 µM): 0.786
- relative viability (NCI-H838; first compound 0.253 µM): 0.737
- relative viability (NCI-H838; first compound 0.8 µM): 0.786
- relative viability (NCI-H838; first compound 2.53 µM): 0.745
- relative viability (NCI-H838; first compound 8 µM): 0.684
